Patent US20140023611A1 (priority 2010, published 2014)

Tests used:
[1] = tested on: Uptake of Phosphorus from the Intestine; assay: In vivo co-dosing in chow (urine P out / P consumed); details: Rattus norvegicus, feed or water; rats, compound in chow; mean drug dose 101 mg/kg/day; read-out: Mean % inhibition Urine Pout/P consumed
Text: Male, 7-week-old Sprague-Dawley rats (Charles-River laboratories international, Hollister, Calif.) were allowed to acclimate for a minimum of 3 days. The experiment was initiated by switching animals to a synthetic diet (0.6% phosphorus and 0.6% calcium, Harlan Teklad TD.84122) for four days. After this time, the animals were placed into metabolic cages for daily monitoring of food and water consumption, as well as urine and fecal collections. Test compounds were incorporated into the powdered diet listed above containing 3% chocolate flavoring (w/w, BioServ #7345) at 1.3 mg test compound per gram of diet to achieve an average daily nominal dose of 100 mg/kg/day. The actual dose received by each animal was later determined by measuring prepared diet consumption and body weight. Urine samples were collected in three daily periods from 24-48, 48-72, and 72-96 hours of drug dosing. Averaging these three 24 h periods allows for the more representative measurements of urination, fecal excretion, food consumption and water uptake for each animal. Phosphorus levels in the urine were determined by anion exchange chromatography using a Dionex ICS-3000 ion chromatography system. Urine samples were diluted 1:500 or 1:1000 and injected onto an IonPac AS18 analytical column (2×250 mm) using a potassium hydroxide eluent. Elution of urine phosphate ions was monitored via conductivity detector and reported as ppm relative to a standard ion solution containing phosphate. Daily urinary P output relative to the P consumed in the prepared diet for each animal was calculated. The percentage inhibition of phosphorus absorption was estimated by determining the reduction of this ratio compared to the control group (animals with no drug in chow). The differences between the means of control and treated groups were evaluated by t tests. In all experiments, one group was always included that had Renvela powder blended into their chow at 0.9% targeting a dose of 750 mg/kg.

[2] = tested on: NaPi2b; assay: Competition with phosphate: Pi uptake assay repeated at 2.1 vs 0.1 mM phosphate; type: cell-based; details: potency at 2.1 vs 0.1 mM phosphate
Text: For example, a phosphate uptake assay can be performed and the IC50 values for a compound at different phosphate concentrations can be determined (e.g., “Enzyme kinetics”, I. Segel, 1975, John-Wiley & Sons, p. 123). IC50 values for non-competitive inhibitors will remain the same or similar with respect to the phosphate concentration, whereas IC50 values for competitive inhibitors will increase (i.e lose potency) as phosphate concentration increases.
To ascertain if an inhibitor was competitive for binding with phosphate, the procedure was repeated, but raising the concentration of the substrate in the assay mixture from 0.1 to 2.1 mM phosphate.

[3] = Stability of compounds in simulated gastric fluid (SGF); type: in vitro ADME; details: simulated gastric fluid (3 mg/mL pepsin), incubation time 6 hr, relative to t=0
Outline: (§1)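 Compounds at […] were incubated 3 or 6 hr in USP simulated gastric fluid with 3 mg/mL pepsin or simulated intestinal fluid with 3 mg/mL pancreatin. Remaining compound was quantified by HPLC-UV or HPLC-MS peak area % and reported as percent of the t=0 level in the same medium.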

[4] = Determination of compound Cmax and AUC after oral gavage (plasma LC-MS/MS); type: in vivo, Sprague-Dawley rats; details: Sprague-Dawley, Structure (I) examples, Table 15, rat, actual oral dose 3-15 mg/kg, plasma 0.5-4 h
Outline: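 Sprague-Dawley rats dosed by oral gavage at nominal 2.5 or 10 mg/kg; blood drawn at 0.5, 1, 2 and 4 h into K2EDTA. Plasma protein-precipitated with acetonitrile plus internal standard and analysed by LC-MS/MS against a plasma standard curve to derive Cmax and AUC.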

[5] = Stability of compounds in simulated intestinal fluid (SIF); type: in vitro ADME; details: simulated intestinal fluid (3 mg/mL pancreatin), incubation time 6 hr, relative to t=0
Outline: as §1

[6] = Fecal recovery of orally administered compounds; type: in vivo, Sprague-Dawley rats; details: Structure (I) examples, Table 16; rat, oral gavage, feces collected until 48 hr after dosing
Text: The animals were kept in metabolic cages and feces were collected from the time of dosing until 48 hr after dosing. Upon collection, feces were dried by lyophilization and ground to a visually homogenous powder. Duplicate samples of ground feces from each individual animal were weighed out and extracted using organic solvent. […] Extraction conditions were not optimized for individual compounds, and thus may represent a minimal level of recovery.
(§2) The animals were kept in metabolic cages and feces were collected from the time of dosing until 48 hr after dosing. Upon collection, feces was dried by lyophilization and ground to a visually homogenous powder. Duplicate samples of ground feces from each individual animal were weighed out and extracted using organic solvent. […] Extraction conditions were not optimized for individual compounds, and thus may represent a minimal level of recovery.
as §2
The animals were kept in metabolic cages and feces were collected from the time of dosing until 48 hr after dosing. Upon collection, feces was dried by lyophilization and ground to a visually homogenous powder. Duplicate samples of ground feces from each individual animal were weighed out and extracted using organic solvent.

[7] = biological target: T1, rat NaP2b (SLC34A2) (Rattus norvegicus, UniProt Q9JJ09); assay: NaP2b-mediated Pi transport (33P uptake) in transfected HEK293 cells, rat NaP2b; type: cell-based; details: Structure (V) examples, Table 2; rat NaP2b, HEK293; read-out: pIC50 Range (converted)
T1 construct: host or cells: HEK293
T1 sequence (Q9JJ09 1-695): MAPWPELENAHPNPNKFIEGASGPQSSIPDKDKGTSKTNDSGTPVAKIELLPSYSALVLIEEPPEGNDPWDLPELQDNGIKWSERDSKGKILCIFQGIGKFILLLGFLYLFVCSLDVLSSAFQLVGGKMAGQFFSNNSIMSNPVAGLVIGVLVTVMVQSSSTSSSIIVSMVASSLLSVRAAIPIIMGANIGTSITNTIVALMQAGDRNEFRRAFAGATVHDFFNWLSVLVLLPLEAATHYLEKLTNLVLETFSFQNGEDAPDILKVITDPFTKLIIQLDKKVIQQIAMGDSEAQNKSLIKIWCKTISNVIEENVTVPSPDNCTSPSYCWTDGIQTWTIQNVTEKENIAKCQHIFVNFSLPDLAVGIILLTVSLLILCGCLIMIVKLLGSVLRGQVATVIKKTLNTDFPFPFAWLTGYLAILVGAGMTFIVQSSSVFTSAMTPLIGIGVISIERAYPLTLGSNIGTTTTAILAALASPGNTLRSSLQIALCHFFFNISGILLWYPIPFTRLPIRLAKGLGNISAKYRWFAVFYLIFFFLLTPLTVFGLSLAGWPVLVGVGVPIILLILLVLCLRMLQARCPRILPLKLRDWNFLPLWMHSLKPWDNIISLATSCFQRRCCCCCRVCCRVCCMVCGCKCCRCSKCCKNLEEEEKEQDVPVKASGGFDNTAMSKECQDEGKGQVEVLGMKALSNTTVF
Protocol: HEK293 cells were obtained from the American Type Culture collection and propagated per their instructions. Expression clones for rat and human NaP2b (SLC34A2) were obtained from Open Biosystems (Catalog numbers MRN1768-9510282, and MHS1010-99823026, respectively). The sequence of the human protein was mutated to insert a threonine after residue 37, and to introduce a N39D mutation.
The rate of phosphate (Pi) uptake into HEK293 cells was measured using a modification of the method described by Mohrmann et al. (Mohrmann, I., Mohrmann, M., Biber, J., and Murer, H. (1986) Am. J. Phys. 250(3 Pt 1):G323-30.) Transfected HEK293 cells were treated with a pharmacological agent to minimize endogenous PiT-mediated phosphate transport activity, such that the only remaining sodium-dependent phosphate transport activity is that which was bestowed by introduction of the NaP2b genes.
(§3) Cells were seeded into 96-well plates at 25,000 cells/well and cultured overnight. Lipofectamine 2000 (Invitrogen) was used to introduce the NaP2b cDNA, and the cells were allowed to approach confluence during a second overnight incubation. […] Cells were then overlayed with either choline uptake buffer or sodium uptake buffer (14 mM Tris, 137 mM sodium chloride, 5.4 mM KCl, 2.8 mM CaCl2, 1.2 mM MgSO4, 100 uM KH2PO4, PiT-silencing agent, 1 mg/mL Bovine Serum Albumin, pH 7.4) containing 6-9 uCi/mL ^33P orthophosphoric acid (Perkin Elmer) and test compound. Each compound was tested at twelve concentrations ranging from 0.1 nM to 30 uM. Assays were run in duplicate.
After incubation for 3-30 minutes at room temperature, assay mixtures were removed, and the cells were washed twice with ice cold stop solution (137 mM sodium chloride, 14 mM Tris, pH 7.4). Cells were lysed by addition of 20 μL 0.1% Tween 80 followed by 100 μL scintillation fluid, and counted using a TopCount (Perkin Elmer).
pIC50 (the negative log of the IC50) values of the test compounds were calculated using GraphPad Prism.
HEK293 cells were obtained from the American Type Culture collection and propagated per their instructions. Expression clones for rat and mouse NaP2b (SLC34A2) cDNAs were obtained from Open Biosystems (Catalog numbers MRN1768-9510282 and MMM1013-98478398 respectively).
The rate of phosphate uptake into HEK293 cells was measured using a modification of the method described by Mohrmann et al. (Mohrmann, I., Mohrmann, M., Biber, J., and Murer, H. (1986) Am. J. Phys. 250(3 Pt 1):G323-30.) Transfected HEK293 cells were treated with a pharmacological agent to minimize endogenous PiT-mediated phosphate transport activity, such that the only remaining sodium-dependent phosphate transport activity is that which was bestowed by introduction of the NaP2b genes.
as §3, with “agent, 0.1% wt/v bovine serum albumin,” for “agent, 1 mg/mL Bovine Serum Albumin,”, “Each compounds” for “Each compound”
After incubation for 3-30 minutes at room temperature, assay mixtures were removed, and the cells were washed twice with ice cold stop solution (137 mM sodium chloride, 14 mM Tris, pH 7.4).

[8] = Stability of compounds in simulated gastric and intestinal fluid; type: in vitro ADME; details: Structure (V) examples, Table 3, 3 hr
Protocol: Test compounds were incubated at 1-20 μM in simulated gastric fluid (SGF; standard USP solution with 3 mg/mL pepsin) or simulated intestinal fluid (SIF; standard USP solution with 3 mg/mL pancreatin) for 3 hr or 6 hr. HPLC-UV or HPLC-MS were used to determine test compound levels using peak area %. Results (Table 5) were reported as the percentage of test compound remaining after incubation in a given condition relative to test compound present at t=0 in the same condition.
Test compounds were incubated at 1-20 μM in simulated gastric fluid (SGF; standard USP solution with 3 mg/mL pepsin) or simulated intestinal fluid (SIF; standard USP solution with 3 mg/mL pancreatin) for 3 hr. HPLC-UV or HPLC-MS were used to determine test compound levels using peak area %. Results (Table 3) were reported as the percentage of test compound remaining after incubation in a given condition relative to test compound present at t=0 in the same condition.

## CN(CCN1CCOCC1)C(=O)c1cccc(C(=O)Nc2ccc(N3CCCCC3)cc2-c2cc(C(=O)N[C@H]3CCCc4ccccc43)ccn2)c1.Cl [Example 37, (S)—N1-Methyl-N1-(2-morpholinoethyl)-N3-(4-(piperidin-1-yl)-2-(4-((1,2,3,4-tetrahydronaphthalen-1-yl)carbamoyl)pyridin-2-yl)phenyl)isophthalamide]
[1]
  inhibition in vivo at 101 mg/kg/day: ≤ 10%
[2]
  Competitive with respect to Pi?: No
[3]
  % remaining, SGF: >80%
[4]
  AUC: < 30 ng·h/mL
  Cmax: < 10 ng/mL
[5]
  % remaining, SIF: >80%
[6]
  % recovered in feces: <20%

## O=C(O)CNC(=O)CCSCc1cccc(C(=O)Nc2ccc(N3CCCCC3)cc2C(=O)N/N=C/c2ccc(Cl)c(C(F)(F)F)c2)c1 [Ex. 50, (E)-2-(3-(3-(2-(2-(4-chloro-3-(trifluoromethyl)benzylidene)hydrazinecarbonyl)-4-(piperidin-1-yl)phenylcarbamoyl)benzylthio)propanamido)acetic acid]
[7]
  IC50: 100 to 794 nM
[8]; simulated gastric fluid
  % remaining, SGF: 7%
[8]; simulated intestinal fluid
  % remaining, SIF: 90%
